Laboratory results from PMC12344696, “Elucidation of the Synergistic Interaction Between Bilirubin and Casein Protein: An Integrated Spectroscopy and Computational Approach” (Biomacromolecules, 2025).

Biological target: T1, casein (CAS) protein; CAS micelles
T1 construct: gene CSN1S1; whole casein mixture (alpha, beta, kappa), self-assembled micelles above CMC
Test: UV-vis absorption titration of BIL with casein, Hill1 fit
Settings: phosphate buffer pH 7.3, 298 K; casein mixture 0.05-3 mg/mL across the CMC; converted from a mg/mL fit with average casein mass 22,500 Da; read-out: binding constant (converted)

- Kd: 33.3 µM
Compound: C=CC1=C(C)/C(=C/c2[nH]c(Cc3[nH]c(/C=C4\NC(=O)C(C)=C4C=C)c(C)c3CCC(=O)O)c(CCC(=O)O)c2C)NC1=O [BIL, bilirubin]
